Assay results published in EP0305086A2, “Antibiotic A80577 and process for its production” (ELI LILLY AND COMPANY, priority 1987, dated 1989).

Tested on: Actinomadura verrucosospora A80577
Assay: Resistance of the producing culture to antibiotic sensitivity discs on seeded ISP No. 2 agar plates
Type: cell-based
Conditions: culture A80577 on ISP No. 2 agar
Procedure: Resistance to antibiotics was measured by padding antibiotic sensitivity discs onto the surface of seeded ISP No. 2 agar plates.
A80577 was resistant to: bacitracin 10 units, cephalothin 30 µg, lincomycin 2 µg, oleandomycin 15 µg, penicillin G 10 units, rifampin 5 µg, and tetracycline 30 µg. It was sensitive to: gentamicin 10 µg, neomycin 30 µg, streptomycin 10 µg, tobramycin 10 µg and vancomycin 30 µg.

CC(=O)OCC1=C(C(=O)O)N2C(=O)[C@@H](NC(=O)Cc3cccs3)[C@H]2SC1 [cephalothin]
Resistance to antibiotics (sensitivity disc) (disc 30 µg): resistant

CCC[C@@H]1C[C@@H](C(=O)N[C@@H]([C@H]2O[C@H](SC)[C@H](O)[C@@H](O)[C@H]2O)[C@@H](C)O)N(C)C1 [lincomycin]
Resistance to antibiotics (sensitivity disc) (disc 2 µg): resistant

CO[C@H]1C[C@H](O[C@H]2[C@H](C)[C@@H](O[C@@H]3O[C@H](C)C[C@H](N(C)C)[C@H]3O)[C@@H](C)C[C@@]3(CO3)C(=O)[C@H](C)[C@@H](O)[C@@H](C)[C@@H](C)OC(=O)[C@@H]2C)O[C@@H](C)[C@@H]1O [oleandomycin]
Resistance to antibiotics (sensitivity disc) (disc 15 µg): resistant

CC1(C)S[C@@H]2[C@H](NC(=O)Cc3ccccc3)C(=O)N2[C@H]1C(=O)O [penicillin G]
Resistance to antibiotics (sensitivity disc) (disc 10 units): resistant

CO[C@H]1/C=C/O[C@@]2(C)Oc3c(C)c(O)c4c(O)c(c(/C=N/N5CCN(C)CC5)c(O)c4c3C2=O)NC(=O)/C(C)=C\C=C\[C@H](C)[C@H](O)[C@@H](C)[C@@H](O)[C@@H](C)[C@H](OC(C)=O)[C@@H]1C [rifampin]
Resistance to antibiotics (sensitivity disc) (disc 5 µg): resistant

[H]/N=C(/N)N[C@H]1[C@H](O)[C@@H](O)[C@H](O[C@@H]2O[C@@H](C)[C@](O)(C=O)[C@H]2O[C@@H]2O[C@@H](CO)[C@H](O)[C@@H](O)[C@@H]2NC)[C@@H](N/C(N)=N\[H])[C@@H]1O [streptomycin]
Resistance to antibiotics (sensitivity disc) (disc 10 µg): sensitive

NC[C@H]1O[C@H](O[C@H]2[C@H](O)[C@@H](O[C@H]3O[C@H](CO)[C@@H](O)[C@H](N)[C@H]3O)[C@H](N)C[C@@H]2N)[C@H](N)C[C@@H]1O [tobramycin]
Resistance to antibiotics (sensitivity disc) (disc 10 µg): sensitive

CN[C@H](CC(C)C)C(=O)N[C@H]1C(=O)N[C@@H](CC(N)=O)C(=O)N[C@H]2C(=O)N[C@H]3C(=O)N[C@H](C(=O)N[C@H](C(=O)O)c4cc(O)cc(O)c4-c4cc3ccc4O)[C@H](O)c3ccc(c(Cl)c3)Oc3cc2cc(c3O[C@@H]2O[C@H](CO)[C@@H](O)[C@H](O)[C@H]2O[C@H]2C[C@](C)(N)[C@H](O)[C@H](C)O2)Oc2ccc(cc2Cl)[C@H]1O [vancomycin]
Resistance to antibiotics (sensitivity disc) (disc 30 µg): sensitive

bacitracin
Resistance to antibiotics (sensitivity disc) (disc 10 units): resistant

gentamicin
Resistance to antibiotics (sensitivity disc) (disc 10 µg): sensitive

neomycin
Resistance to antibiotics (sensitivity disc) (disc 30 µg): sensitive
